Structures are written as SMILES. pEC50, pIC50: −log10 of the molar value. Where two headings read alike, the source gives them in different places. A value given as a limit tells only on which side of the number the result lay.

Assay [1] has as its target T1, human Cot catalytic domain (30-397 amino acids) (Homo sapiens, UniProt P41279).
T1 construct: Purified recombinant human Cot catalytic domain (30-397 amino acids) was purchased from Cama Biosciences; purchased Cama Biosciences (so in the source)
Kind of assay: High Throughput Cot Biochemical Assay (KinEASE TR-FRET). The settings on record: read-out: IC50 HTRF. In outline:
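Recombinant human Cot catalytic domain (aa 30-397), 5 nM, with 1 μM STK3 peptide and 400 μM ATP in MOPS pH 7.0 buffer with MgOAc, DTT, BSA, NP-40, glycerol, 0.1% DMSO. Phosphorylated XL665-peptide detected by Eu-[…] antibody TR-FRET.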
In general terms: TR-FRET usually uses a lanthanide donor and a delayed reading to cut background.

Assay [2] relates to TNFα production in LPS-stimulated human monocytes. The experiment in a line: Cot Monocyte TNFα Cell Based Assay. The settings on record: Homo sapiens, Monocyte, read-out: EC50 TNF. In outline: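 Human monocytes (5,000 cells/well) pretreated with compound for 1 hour at 37° C (0.5% DMSO), then stimulated with 50 pg/ml LPS for 4 hours. Total TNFα measured by TR-FRET after overnight antibody incubation at room temp, expressed as percent of control between unstimulated and stimulated cells.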

Where [3] appears, read: Cot KinEASE TR-FRET, 400 μM ATP.
Setting [4] is: LPS-stimulated human monocytes, TNFα TR-FRET.
Setting [5] is: Cot KinEASE TR-FRET (HTRF) biochemical assay, 400 μM ATP.
Setting [6] is: TNFα in LPS-stimulated human monocytes.
The mark [7] stands for this setting: Cot biochemical HTRF (KinEASE TR-FRET) assay.

T1 sequence (P41279 30-397): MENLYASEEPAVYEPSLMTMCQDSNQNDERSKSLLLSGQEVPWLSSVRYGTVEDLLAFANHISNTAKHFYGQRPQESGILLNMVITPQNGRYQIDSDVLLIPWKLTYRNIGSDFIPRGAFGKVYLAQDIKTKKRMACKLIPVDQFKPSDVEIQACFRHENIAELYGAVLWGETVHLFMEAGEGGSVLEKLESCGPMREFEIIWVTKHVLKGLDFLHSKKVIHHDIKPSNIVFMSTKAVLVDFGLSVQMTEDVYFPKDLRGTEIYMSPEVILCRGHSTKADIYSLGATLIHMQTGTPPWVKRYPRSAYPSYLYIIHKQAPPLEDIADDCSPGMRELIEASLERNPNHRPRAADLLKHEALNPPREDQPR

For the compound `Cc1c([C@H](Nc2cc(Cl)c3ncc(C#N)c(NCC(C)(C)C)c3c2)c2cn(C3(C(F)(F)F)CC3)nn2)cccc1-n1cnnc1` [Example 1071, (S)-8-chloro-6-(((2-methyl-3-(4H-1,2,4-triazol-4-yl)phenyl)(1-(1-(trifluoromethyl)cyclopropyl)-1H-1,2,3-triazol-4-yl)methyl)amino)-4-(neopentylamino)quinoline-3-carbonitrile], the pIC50 (in general, −log10 of the IC50, conventionally taken in molar units) in assay [1] (setting [3]) was 8.52. Besides, the pEC50 (commonly the negative decadic logarithm of the EC50, by convention in mol/L) in assay [2] (setting [4]) was 6.67.
For `N#CCC[C@@H](Nc1c(C#N)cnc2c(Cl)cc(N[C@H](c3cn(C4(C#N)CC4)nn3)c3ccccc3Cl)cc12)c1ccccc1` [Example 73, 8-chloro-6-(((S)-(2-chlorophenyl)(1-(1-cyanocyclopropyl)-1H-1,2,3-triazol-4-yl)methyl)amino)-4-(((R)-3-cyano-1-phenylpropyl)amino) quinoline-3-carbonitrile], in assay [1] (setting [5]), the negative logarithm of the IC50 (pIC50) is 8.70. In addition, the pEC50 in assay [2] (setting [6]) was 7.47.
Take `CC(C)n1cc([C@@H](Nc2cc(Cl)c3ncc(C#N)c(Nc4ccc(F)c(Cl)c4)c3c2)c2cccc(N3CCC3=O)c2)nn1` [Example 551, (S)-8-chloro-4-((3-chloro-4-fluorophenyl)amino)-6-(((1-isopropyl-1H-1,2,3-triazol-4-yl)(3-(2-oxoazetidin-1-yl)phenyl)methyl)amino)quinoline-3-carbonitrile]: the pIC50 in assay [1] (setting [7]) was 8.30. For the same compound, the negative logarithm of the EC50 (pEC50) in assay [2] (setting [6]) was 6.32.
`CC(C)(C)CNc1c(C#N)cnc2c(Cl)cc(N[C@H](c3cn(C4(C(F)F)CC4)nn3)c3cccc(C#N)c3Cl)cc12` [Example 1075, (S)-8-chloro-6-(((2-chloro-3-cyanophenyl)(1-(1-(difluoromethyl)cyclopropyl)-1H-1,2,3-triazol-4-yl)methyl)amino)-4-(neopentylamino)quinoline-3-carbonitrile]: the pIC50 in assay [1] (setting [3]) was 7.64. Also, in assay [2] (setting [4]), the negative-log EC50 (pEC50) is 6.73.
With `[2H][C@](Nc1cc(Cl)c2ncc(C#N)c(NCC3(C)CCOCC3)c2c1)(c1ccc(F)cc1)c1cn(C2CC2)nn1` [Example 333, (S)-8-chloro-6-(((1-cyclopropyl-1H-1,2,3-triazol-4-yl)(4-fluorophenyl)methyl-d)amino)-4-(((4-methyltetrahydro-2H-pyran-4-yl)methyl)amino) quinoline-3-carbonitrile], the pIC50 in assay [1] (setting [5]) is 8.05. In addition, in assay [2] (setting [6]), the pEC50 is 6.59.
`CC(C)(C)CNc1c(C#N)cnc2c(C#N)cc(N[C@H](c3cn(C4(C(N)=O)CCOC4)nn3)c3ccccc3Cl)cc12` (stereo partly drawn) [Example 1022, 3-(4-((S)-(2-chlorophenyl) ((3,8-dicyano-4-(neopentylamino)quinolin-6-yl)amino)methyl)-1H-1,2,3-triazol-1-yl)tetrahydrofuran-3-carboxamide]: the pIC50 in assay [1] (setting [3]) was 8.15. Further, the pEC50 in assay [2] (setting [4]) was 6.30.
The matching figures for `CC(C)(C)CNc1c(C#N)cnc2c(Cl)cc(N[C@@H](c3cccc(C4(C#N)CC4)c3)c3cn(C4(C(F)(F)F)CC4)nn3)cc12` [Example 1091, (S)-8-chloro-6-(((3-(1-cyanocyclopropyl)phenyl)(1-(1-(trifluoromethyl)cyclopropyl)-1H-1,2,3-triazol-4-yl)methyl)amino)-4-(neopentylamino)quinoline-3-carbonitrile]: 7.55 and ≤ 6.00.
On to `[2H][C@](Nc1cc(Cl)c2ncc(C#N)c(NC3(C)CCC3)c2c1)(c1ccc(F)cc1)c1cn(C2CC2)nn1` [Example 219, (S)-8-chloro-6-(((1-cyclopropyl-1H-1,2,3-triazol-4-yl)(4-fluorophenyl)methyl-d)amino)-4-((1-methylcyclobutyl)amino)quinoline-3-carbonitrile], for which the negative logarithm of the IC50 (pIC50) in assay [1] (setting [5]) is 6.27. Besides, the pEC50 in assay [2] (setting [6]) is 5.31.
Take `CC(C)(C)CNc1c(C#N)cnc2c(Cl)cc(N[C@@H](c3ccccc3)c3cn(C4(C(F)(F)F)CC4)nn3)cc12` [Example 1059, (S)-8-chloro-4-(neopentylamino)-6-((phenyl(1-(1-(trifluoromethyl)cyclopropyl)-1H-1,2,3-triazol-4-yl)methyl)amino)quinoline-3-carbonitrile]: in assay [1] (setting [3]), the pIC50 is 7.12. Moreover, in assay [2] (setting [4]), the pEC50 was 6.26.
On to `CC(C)(C)CNc1c(C#N)cnc2c(Cl)cc(N[C@@H](c3ccc(C#N)cc3)c3cn(C4CC4)nn3)cc12` [Example 1084, (S)-8-chloro-6-(((4-cyanophenyl)(1-cyclopropyl-1H-1,2,3-triazol-4-yl)methyl)amino)-4-(neopentylamino)quinoline-3-carbonitrile], for which the negative logarithm of the IC50 (pIC50) in assay [1] (setting [3]) is 8.15. Besides, in assay [2] (setting [4]), the pEC50 is 7.14.
Turning to `CCN1CCC(n2cc([C@@H](Nc3cc(F)c4ncc(C#N)c(Nc5ccc(F)c(Cl)c5)c4c3)c3ccc(Cl)cc3)nn2)CC1` [Example 813, (S)-4-((3-chloro-4-fluorophenyl)amino)-6-(((4-chlorophenyl)(1-(1-ethylpiperidin-4-yl)-1H-1,2,3-triazol-4-yl)methyl)amino)-8-fluoroquinoline-3-carbonitrile], the negative logarithm of the IC50 (pIC50) in assay [1] (setting [7]) is 8.22. Moreover, the pEC50 in assay [2] (setting [6]) is 6.94.
Turning to `[2H][C@](Nc1cc(Cl)c2ncc(C#N)c(NCC(C)(C)C)c2c1)(c1cccc(C#N)c1)c1cn(C(C)(C)C)nn1` [Example 233, (S)-6-(((1-(tert-butyl)-1H-1,2,3-triazol-4-yl)(3-cyanophenyl)methyl-d)amino)-8-chloro-4-(neopentylamino)quinoline-3-carbonitrile], the pIC50 in assay [1] (setting [5]) is 8.30. Further, in assay [2] (setting [6]), the negative logarithm of the EC50 (pEC50) was 6.59.
For `[2H][C@](Nc1cc(Br)c2ncc(C#N)c(NCC(C)(C)C)c2c1)(c1ccc(F)cc1)c1cn(C2CC2)nn1` [Example 287, (S)-8-bromo-6-(((1-cyclopropyl-1H-1,2,3-triazol-4-yl)(4-fluorophenyl)methyl-d)amino)-4-(neopentylamino)quinoline-3-carbonitrile], in assay [1] (setting [5]), the pIC50 is 8.00. Also, the pEC50 in assay [2] (setting [6]) is 6.85.
The matching figures for `[2H][C@](Nc1cc(Cl)c2ncc(C#N)c(NC(CCC#N)c3ccccc3)c2c1)(c1ccc(F)cc1)c1cn(C2CC2)nn1` (stereo partly drawn) [Example 302, 8-chloro-4-((3-cyano-1-phenylpropyl)amino)-6-(((S)-(1-cyclopropyl-1H-1,2,3-triazol-4-yl)(4-fluorophenyl)methyl-d)amino)quinoline-3-carbonitrile]: 8.52 and 7.13.
`CC(C)(C)N1CCC(n2cc([C@@H](Nc3cc(Cl)c4ncc(C#N)c(Nc5ccc(F)cc5C#N)c4c3)c3ccccc3)nn2)CC1` [Example 471, (S)-6-(((1-(1-(tert-butyl)piperidin-4-yl)-1H-1,2,3-triazol-4-yl)(phenyl)methyl)amino)-8-chloro-4-((2-cyano-4-fluorophenyl)amino) quinoline-3-carbonitrile]: the pIC50 in assay [1] (setting [7]) was 6.48. Also, in assay [2] (setting [6]), the pEC50 was 5.06.
Regarding `Cc1c(-c2cnco2)cccc1[C@H](Nc1cc(Cl)c2ncc(C#N)c(NCC(C)(C)C)c2c1)c1cn(C2(C(F)F)CC2)nn1` [Example 1167, (S)-8-chloro-6-(((1-(1-(difluoromethyl)cyclopropyl)-1H-1,2,3-triazol-4-yl)(2-methyl-3-(oxazol-5-yl)phenyl)methyl)amino)-4-(neopentylamino)quinoline-3-carbonitrile], the pIC50 in assay [1] (setting [3]) is 8.30. In addition, the pEC50 in assay [2] (setting [4]) is 7.21.
As for `CC(C)(C)N1CCC(n2cc([C@@H](Nc3cc(Cl)c4ncc(C#N)c(NC5CCOCC5)c4c3)c3ccc(Cl)cc3)nn2)CC1` [Example 662, (S)-6-(((1-(1-(tert-butyl)piperidin-4-yl)-1H-1,2,3-triazol-4-yl)(4-chlorophenyl)methyl)amino)-8-chloro-4-((tetrahydro-2H-pyran-4-yl)amino)quinoline-3-carbonitrile], the negative-log IC50 (pIC50) in assay [1] (setting [7]) is 7.15. In assay [2] (setting [6]), the pEC50 was 5.90.
In the same order, the values of `CC[C@@H](Nc1c(C#N)cnc2c(Cl)cc(N[C@@H](c3cccc(F)c3F)c3cnnn3C(F)F)cc12)c1ccccc1` [Example 427, 8-chloro-6-(((S)-(1-(difluoromethyl)-1H-1,2,3-triazol-5-yl)(2,3-difluorophenyl)methyl)amino)-4-(((R)-1-phenylpropyl)amino) quinoline-3-carbonitrile] are 6.50 and 5.05.
The matching figures for `CCN1CC[C@@H](n2cc([C@@H](Nc3cc(Cl)c4ncc(C#N)c(Nc5ccc(F)c(Cl)c5)c4c3)c3ccccc3)nn2)[C@H](F)C1` [Example 743, 8-chloro-4-((3-chloro-4-fluorophenyl)amino)-6-(((S)-(1-((3R,4R)-1-ethyl-3-fluoropiperidin-4-yl)-1H-1,2,3-triazol-4-yl)(phenyl)methyl)amino)quinoline-3-carbonitrile]: 7.54 and 6.24.
The matching figures for `CC(C)(C)N1CCC(n2cc([C@@H](Nc3cc(Cl)c4ncc(C#N)c(Nc5ccc(F)c(Cl)c5)c4c3)c3cccc(N4CCC4=O)c3)nn2)CC1` [Example 552, (S)-6-(((1-(1-(tert-butyl)piperidin-4-yl)-1H-1,2,3-triazol-4-yl)(3-(2-oxoazetidin-1-yl)phenyl)methyl)amino)-8-chloro-4-((3-chloro-4-fluorophenyl)amino)quinoline-3-carbonitrile]: 8.30 and 6.87.

(Values after patent US10316017B2, “COT modulators and methods of use thereof” (Gilead Sciences, Inc., priority 2015, dated 2019).)
